# Source: US20260232749A1, “Plant-Based Compositions And Methods For Modulation of Inflammatory Response Post Viral Infection” (VDF Futureceuticals, Inc., priority 2023, published 2026)
# “Also recorded” adds a separate entry of the source.
# Legend:
# iNOS = iNOS (Homo sapiens, UniProt P35228); assay: eCMA-iNOS: iNOS-dependent ROS generation in capillary blood (ESR) after single oral dose; format: in vivo; conditions: over three hours after single oral dose (50 mg blend or 1,000 mg vitamin C); FIG. 2
# NOX2 = target: T1, NOX2 (Homo sapiens, UniProt P04839); assay: eCMA-PHAGO-NOX2: NOX2-dependent ROS generation in capillary blood (ESR) after single oral dose; format: in vivo; conditions: single oral dose (50 mg blend or 1,000 mg vitamin C); subjects 18-24 days after moderate COVID-19; 30-180 min after administration
# T1 sequence (P04839 2-570 limits assumed): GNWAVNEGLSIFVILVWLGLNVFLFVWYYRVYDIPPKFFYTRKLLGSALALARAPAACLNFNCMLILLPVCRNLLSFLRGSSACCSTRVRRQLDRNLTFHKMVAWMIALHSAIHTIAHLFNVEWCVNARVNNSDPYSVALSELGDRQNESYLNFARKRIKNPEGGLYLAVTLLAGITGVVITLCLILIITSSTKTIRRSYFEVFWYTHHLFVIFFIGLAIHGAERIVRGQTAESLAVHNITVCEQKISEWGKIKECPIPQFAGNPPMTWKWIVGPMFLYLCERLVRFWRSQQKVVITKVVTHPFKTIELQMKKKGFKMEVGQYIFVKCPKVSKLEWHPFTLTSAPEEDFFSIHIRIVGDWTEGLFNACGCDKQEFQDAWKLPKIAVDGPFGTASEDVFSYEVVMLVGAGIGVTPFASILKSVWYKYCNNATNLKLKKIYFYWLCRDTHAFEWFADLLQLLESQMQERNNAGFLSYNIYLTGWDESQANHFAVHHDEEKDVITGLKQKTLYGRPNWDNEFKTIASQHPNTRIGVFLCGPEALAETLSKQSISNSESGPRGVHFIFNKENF
# T1 sequence (P13498 2-195 partner limits assumed): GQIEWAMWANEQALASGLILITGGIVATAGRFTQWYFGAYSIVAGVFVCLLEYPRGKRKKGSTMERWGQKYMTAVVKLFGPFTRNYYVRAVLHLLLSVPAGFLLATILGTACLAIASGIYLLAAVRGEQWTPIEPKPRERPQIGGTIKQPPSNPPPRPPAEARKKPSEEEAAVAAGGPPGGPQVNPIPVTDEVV
# [1] = tested on: TNF-α induced H2O2 formation; assay: inflammatory resistance assay: ex vivo TNF-α induced extracellular H2O2 generation by blood cells; format: in vivo, human; conditions: single oral dose 50 mg blend or 1,000 mg vitamin C
structure (smiles),measurement,setting,value
O=C1O[C@H]([C@@H](O)CO)C(O)=C1O [vitamin C],"change in iNOS dependent cellular metabolic activity, in words",iNOS,no notable effect
same,inhibition of NOX2-dependent ROS generation,NOX2,45%
same,"suppression of extracellular H2O2 induced by TNF-α, in words","[1]; TNF-α 40 ng/ml (comparable to acute viral infection), FIG. 5A",similarly suppress
same,"reduction of high dose TNFα-induced H2O2 formation, in words","[1]; TNFα 200 ng/ml (""Cytokine Storm""), FIG. 5B",equal potential to reduce; also recorded: similar
